Measurements reported in patent publication US20230146455A1, “TREATMENT OF INFLAMMATORY DISEASES WITH PEPTIDES AND PHARMACEUTICAL COMPOSITIONS” (Yuyu Pharma, Inc., priority 2020, published 2023).
“And” between values parts separate entries of the source, which are not always exact repeats. Equal entries are not always repeated. Where a SMILES comes first, the peptide text is derived from it. [ ]: non-standard residue; d: D form. Hyp = O=C(O)[C@@H]1C[C@@H](O)CN1

System: IL-1 beta/IL-1F2
Test: Example 9 Luminex, LPS hPBMCs: IL-1 beta/IL-1F2
Type: cell-based, human
Protocol: Treatment Human PBMCs were pretreated with YY-101, YDE-011 and YDE-043 or reference compound; Xiidra® at various concentration (ranging from 1 nM to 100 uM) for 2 h before stimulation. An equal volume of 0.5% DMSO was used as a vehicle control. Then, the cells were treated with LPS at 5 ug/ml. The supernatants from treated cells were harvested at 24 h and placed in a 96 well for Luminex cytokine & chemokine profiling using a Luminex 200 multiplex assay (Luminex; R&D system, USA).
The main study arm with triplicate wells per group in a 24-well plate: • 1. Blank • 2. PBMC: 0.5% DMSO • 3. PBMC+LPS (5 ug/ml) • 4. PBMC+YY-101 100 uM • 5. PBMC+YY-101 10 uM • 6. PBMC+YY-101 1 uM • 7. PBMC+YY-101 0.1 uM • 8. PBMC+YY-101 0.01 uM • 9. PBMC+LPS (5 ug/ml)+Xiidra®100 uM • 10. PBMC+LPS (5 ug/ml)+Xiidra® 10 uM • 11. PBMC+LPS (5 ug/ml)+Xiidra® 1 uM • 12. PBMC+LPS (5 ug/ml)+Xiidra®0.1 uM • 13. PBMC+LPS (5 ug/ml)+Xiidra®0.01 uM • 14. PBMC+LPS (5 ug/ml)+Xiidra®0.001 uM • 15. PBMC+LPS (5 ug/ml)+YY-101 100 uM • 16. PBMC+LPS (5 ug/ml)+YY-101 10 uM • 17. PBMC+LPS (5 ug/ml)+YY-101 1 uM • 18. PBMC+LPS (5 ug/ml)+YY-101 0.1 uM • 19. PBMC+LPS (5 ug/ml)+YY-101 0.01 uM • 20. PBMC+LPS (5 ug/ml)+YY-101 0.001 uM • 21. PBMC+LPS (5 ug/ml)+YDE-011 100 uM • 22. PBMC+LPS (5 ug/ml)+YDE-011 10 uM • 23. PBMC+LPS (5 ug/ml)+YDE-011 1 uM • 24. PBMC+LPS (5 ug/ml)+YDE-011 0.1 uM • 25. PBMC+LPS (5 ug/ml)+YDE-011 0.01 uM • 26. PBMC+LPS (5 ug/ml)+YDE-011 0.001 uM • 27. PBMC+LPS (5 ug/ml)+YDE-043 100 uM • 28. PBMC+LPS (5 ug/ml)+YDE-043 10 uM • 29. PBMC+LPS (5 ug/ml)+YDE-043 1 uM • 30. PBMC+LPS (5 ug/ml)+YDE-043 0.1 uM • 31. PBMC+LPS (5 ug/ml)+YDE-043 0.01 uM • 32. PBMC+LPS (5 ug/ml)+YDE-043 0.001 uM
Multiplex assay was used to measure 30 cytokines and chemokines. The 1:2, 1:10 and 1:200 diluted cell supernatant and serial dilution of the standard were dispensed into a 96 well plate at 50 ul/well. Then, the pre-mixed cocktail of antibody-coated magnetic beads was dispensed at 50 ul/well and incubated at room temperature for 2 h in a horizontal orbital microplate shaker at 800±500 rpm. The beads were washed using a magnetic device to prevent loss. The biotin-antibody was dispensed in 50 ul of each well and incubated at room temperature for 1 h in a shaker at 800±500 rpm. After washing, streptavidin-PE was added at 50 ul/well and incubated at room temperature for 30 min in a shaker under the same conditions. Finally, after washing, wash buffer (100 ul/well) was added to the plate and incubated in a shaker for 2 min. The Luminex™ 200 setting were set according to the manufacturer's protocol. The data was calculated with a standard five-parameter logistic nonlinear regression analysis of the data (xPonent software 4.2, USA). The levels of cytokine/chemokine are normalized to the live cell counts (1×10^5 cells/mL) and presented as concentrations per mL (pg/mL or ng/mL).

[1] = PBMC + LPS(5 ug/ml) + test article 0.001 uM, Mean
[2] = PBMC + LPS(5 ug/ml) + test article 0.001 uM, single replicates
[3] = PBMC + LPS(5 ug/ml) + test article 0.01 uM, Mean
[4] = PBMC + LPS(5 ug/ml) + test article 0.01 uM, single replicates
[5] = PBMC + LPS(5 ug/ml) + test article 0.1 uM, Mean
[6] = PBMC + LPS(5 ug/ml) + test article 0.1 uM, single replicates
[7] = PBMC + LPS(5 ug/ml) + test article 1 uM, Mean
[8] = PBMC + LPS(5 ug/ml) + test article 1 uM, single replicates
[9] = PBMC + LPS(5 ug/ml) + test article 10 uM, Mean
[10] = PBMC + LPS(5 ug/ml) + test article 10 uM, single replicates
[11] = PBMC + LPS(5 ug/ml) + test article 100 uM, Mean
[12] = PBMC + LPS(5 ug/ml) + test article 100 uM, single replicates

Work on `CC(C)C[C@H](NC(=O)[C@H](CCC(N)=O)NC(=O)CNC(=O)[C@@H]1C[C@@H](O)CN1)C(=O)NCC(=O)O` [YDE-043] (H-[Hyp]GQLG-OH; N-terminus and C-terminus assumed) yielded a Concentration [1] of 6632.8 pg/mL, an MFI [1] of 1711.8 and a conc/live cell [1] of 1343.9 pg/10^5. The Concentration [2] was 6369.5 pg/mL and 7037.7 pg/mL and 6491.1 pg/mL, the MFI [2] was 1640.5 and 1821.5 and 1673.5 and the conc/live cell [2] was 1447.6 pg/10^5 and 1173.0 pg/10^5 and 1411.1 pg/10^5. It also gave a Concentration [3] of 6569.2 pg/mL, an MFI [3] of 1694.7 and a conc/live cell [3] of 1253.9 pg/10^5. For the same compound, the Concentration [4] was 6432.1 pg/mL and 6655.2 pg/mL and 6620.2 pg/mL, the MFI [4] was 1657.5 and 1718.0 and 1708.5 and the conc/live cell [4] was 1429.4 pg/10^5 and 1008.4 pg/10^5 and 1324.0 pg/10^5. For the same compound, the Concentration [5] was 6324.2 pg/mL, the MFI [5] was 1628.2 and the conc/live cell [5] was 1172.5 pg/10^5. For the same compound, the Concentration [6] was 6049.3 pg/mL and 6384.2 pg/mL and 6539.0 pg/mL, the MFI [6] was 1553.5 and 1644.5 and 1686.5 and the conc/live cell [6] was 1209.9 pg/10^5 and 1140.0 pg/10^5 and 1167.7 pg/10^5. For the same compound, the Concentration [7] was 6195.3 pg/mL, the MFI [7] was 1593.2 and the conc/live cell [7] was 1173.7 pg/10^5. For the same compound, the Concentration [8] was 6303.2 pg/mL and 5942.7 pg/mL and 6340.0 pg/mL, the MFI [8] was 1622.5 and 1524.5 and 1632.5 and the conc/live cell [8] was 1086.8 pg/10^5 and 1238.1 pg/10^5 and 1196.2 pg/10^5. It also gave a Concentration [9] of 6556.9 pg/mL, an MFI [9] of 1691.3 and a conc/live cell [9] of 1214.7 pg/10^5. For the same compound, the Concentration [10] was 6382.4 pg/mL and 6634.9 pg/mL and 6653.4 pg/mL, the MFI [10] was 1644.0 and 1712.5 and 1717.5 and the conc/live cell [10] was 1227.4 pg/10^5 and 1228.7 pg/10^5 and 1188.1 pg/10^5. It also gave a Concentration [11] of 8209.5 pg/mL, an MFI [11] of 2135.8 and a conc/live cell [11] of 1304.8 pg/10^5. For the same compound, the Concentration [12] was 8744.5 pg/mL and 7674.4 pg/mL, the MFI [12] was 2278.5 and 1993.0 and the conc/live cell [12] was 1410.4 pg/10^5 and 1199.1 pg/10^5.
